Source: patent US20090068290A1, “BIFEPRUNOX DOSES FOR TREATING SCHIZOPHRENIA” (priority 2006, published 2009)

Legend:
Format in all cases: in vivo, human
[1] = tested on: adult subjects with schizophrenia; experiment: PANSS total score, Clinical Study Two (6-week, risperidone-referenced); conditions: LOCF; for Change from Baseline in PANSS Total Score, Mean (SD) / Change from Baseline in PANSS Total Score, Median / PANSS Total Score, Trt Effect (difference between bifeprunox and placebo): ITT; for PANSS Total Score, Trt Effect (difference between bifeprunox and placebo): ANCOVA
Procedure: Treatment started with a single-blind placebo lead-in period of at least three days, followed by titration from 0.25 mg up to 30 mg/day or 40 mg/day of bifeprunox for bifeprunox-treated subjects.
Rating scale assessments were performed weekly, except for week 5, to measure the change from baseline to endpoint of the PANSS total score. Other assessments included: PANSS positive symptom subscale score, PANSS negative symptom subscale score, PANSS general pschopathology subscale score, BPRS total score, BPRS psychosis score, the CGI-S score, the CGI-I score, responder rates based on the PANSS total score, and the Calgary Depression Scale for Schizophrenia (CDSS).
Subjects who completed this study had the option to continue in the long-term. […] After completing a Single-Blind placebo lead-in period of at least three days, bifeprunox-treated subjects were titrated from 0.25 mg up to 30 mg/day or 40 mg/day according to a standardized titration scheme over an eight-day period. When the assigned dose was reached, subjects were maintained at that dose for the remainder of the six week treatment period. […] Rating scale assessments for efficacy and abnormal movement disorders were done weekly except for Week 5. Safety assessments were performed at Screening, during treatment and at the end of the study. Subject satisfaction with study medication was assessed at Week 6. Samples of blood were obtained at Weeks 2, 4, and 6 for determination of bifeprunox in plasma. Blood samples were also obtained at Screening/Baseline, Week 3, and Week 6 for clinical laboratory assessments.
Diagnosis and Main Criteria for Inclusion: Male or female subjects 18-75 years of age with schizophrenia (per DSM-IV-TR criteria). Subjects had to have a total score on the PANSS between 70 and 120; at least two of four PANSS items (conceptual disorganization, hallucinatory behavior, suspiciousness, unusual thought content) had to have a score ≧4; and the score on the CGI-S had to be at least 4.

[2] = tested on: adult subjects with schizophrenia; experiment: CGI responder rate, Clinical Study Two; conditions: LOCF
Procedure: Notable differences were also observed between the 30 mg bifeprunox group and placebo for the change from baseline to endpoint in PANSS general psychopathology subscale score, BPRS total score, BPRS psychosis cluster score, PANSS responder rate, and CGI-I responder rate. In the study, a PANSS responder refers to a subject whose PANSS total score decreased by 20% or more from baseline to endpoint. A CGI-I responder refers to a subject who was categorized as “very much improved” or “much improved” in the CGI Global Improvement scale at endpoint.
Pharmacokinetic (PK) data of bifeprunox in schizophrenic subjects were also assessed and are presented in a separate report (combined with data from study S1543003).
Subjects who completed this study had the option to continue in the long-term. […] Risperidone-treated subjects were titrated from 2 mg to 6 mg daily over a three-day period and were subsequently maintained at 6 mg/day for the remainder of the treatment period. […] Blood samples were also obtained at Screening/Baseline, Week 3, and Week 6 for clinical laboratory assessments.
CLINICAL STUDY TWO: A CGI responder is defined as a subject who is categorized as “very much improved” or “much improved” on the CGI Improvement scale. […] A notable difference between the 30 mg bifeprunox group and placebo was seen (p=0.039).

[3] = tested on: adult subjects with schizophrenia; experiment: Calgary Depression Scale for Schizophrenia (CDSS), Clinical Study Three; conditions: LOCF
Source text: SECONDARY OBJECTIVES To assess the efficacy of bifeprunox in treating schizophrenia using the Positive Symptom sub-scale score of the PANSS, the Negative Symptom sub-scale score of the PANSS, the General Psychopathology sub-scale of the PANSS, Brief Psychiatric Rating Scale (BPRS) total score derived from the PANSS, BPRS psychosis score derived from the PANSS, the Clinical Global Impression Severity of Illness score (CGI-S), the Clinical Global Impression Improvement score (CGI-I), CGI-I responder rate, PANSS responder rate based on the PANSS total score, Calgary Depression Scale for Schizophrenia (CDSS), and Subject Satisfaction rating.
There were four treatment arms in this study, approximately 144 subjects per arm. […] After completing the Single-Blind Placebo Lead-in Period of at least three days, bifeprunox-treated subjects were titrated from 0.25 mg up to 20 mg/day or 30 mg/day according to a standardized titration scheme over a seven- or eight-day period, respectively. When the assigned dose was reached, subjects were maintained at that dose for the remainder of the six week treatment period. […] Subjects were hospitalized (if not already inpatients) after eligibility for study entry was verified, starting from the Screening Visit until at least 10 days after Baseline. Subjects could be hospitalized longer than 10 days if considered medically necessary by the Investigator. Rating scale assessments for efficacy and abnormal movement disorders were done weekly except for Week 5. […] Subject satisfaction with study medication was assessed at Week 6.

[4] = Bifeprunox 30 mg, Week 6/Endpoint
[5] = Bifeprunox 40 mg, Week 6/Endpoint

## O=c1[nH]c2cccc(N3CCN(Cc4cccc(-c5ccccc5)c4)CC3)c2o1 [Bifeprunox, 7-[4-([1,1′-biphenyl]-3-ylmethyl)-1-piperazinyl]-2(3H)-benzoxazolone]
[1]; Bifeprunox 30 mg, Week 1
  Change from Baseline in PANSS Total Score, Mean (SD): −6.6 (11.8)
  Change from Baseline in PANSS Total Score, Median: −5
[1]; Bifeprunox 30 mg, Week 2
  Change from Baseline in PANSS Total Score, Mean (SD): −11.6 (15.5)
  Change from Baseline in PANSS Total Score, Median: −10
[1]; Bifeprunox 30 mg, Week 3
  Change from Baseline in PANSS Total Score, Mean (SD): −13.3 (17.8)
  Change from Baseline in PANSS Total Score, Median: −10
[1]; Bifeprunox 30 mg, Week 4
  Change from Baseline in PANSS Total Score, Mean (SD): −13.6 (18.9)
  Change from Baseline in PANSS Total Score, Median: −10
[1]; [4]
  Change from Baseline in PANSS Total Score, Mean (SD): −13.5 (20.1)
  Change from Baseline in PANSS Total Score, Median: −10
  PANSS Total Score, Trt Effect (difference between bifeprunox and placebo): −5.9
[1]; Bifeprunox 40 mg, Week 1
  Change from Baseline in PANSS Total Score, Mean (SD): −6.7 (11.5)
  Change from Baseline in PANSS Total Score, Median: −6
[1]; Bifeprunox 40 mg, Week 2
  Change from Baseline in PANSS Total Score, Mean (SD): −8.9 (15.6)
  Change from Baseline in PANSS Total Score, Median: −8
[1]; Bifeprunox 40 mg, Week 3
  Change from Baseline in PANSS Total Score, Mean (SD): −10.0 (17.8)
  Change from Baseline in PANSS Total Score, Median: −10
[1]; Bifeprunox 40 mg, Week 4
  Change from Baseline in PANSS Total Score, Mean (SD): −9.2 (18.8)
  Change from Baseline in PANSS Total Score, Median: −7
[1]; [5]
  Change from Baseline in PANSS Total Score, Mean (SD): −10.3 (20.5)
  Change from Baseline in PANSS Total Score, Median: −7
  PANSS Total Score, Trt Effect (difference between bifeprunox and placebo): −3.2
[1]; bifeprunox 30 mg (b57 prints 20 mg)
  difference from placebo, change from Baseline to Endpoint in PANSS total score: statistically significant difference from placebo
[1]; bifeprunox 30 mg
  greater improvement from Baseline to Endpoint in PANSS total score compared with placebo: 5.9 point
[1]; bifeprunox 30 mg, week 2
  PANSS Total Score, treatment effect versus placebo: −5.6
[1]; bifeprunox 30 mg, week 4
  PANSS Total Score, treatment effect versus placebo: −6.3
[1]; bifeprunox 40 mg
  difference from placebo, change from Baseline to Endpoint in PANSS total score: not significantly different from the placebo group
[2]; 30 mg
  CGI Responder at Endpoint No, %: 64%
  CGI Responder at Endpoint Yes, %: 36%
[2]; 40 mg
  CGI Responder at Endpoint No, %: 72%
  CGI Responder at Endpoint Yes, %: 28%
[2]; bifeprunox 30 mg
  CGI-I responder rate (subjects much or very much improved) at Endpoint: 36%
[2]; bifeprunox 40 mg
  CGI-I responder rate (subjects much or very much improved) at Endpoint: 28%
[3]; 20 mg versus placebo, Week 6, Endpoint
  CDSS Total Score, Trt Effect: −0.54
[3]; 20 mg, Week 1
  Change from Baseline in CDSS Total Score, Mean (SD): −0.86 (2.87)
  Change from Baseline in CDSS Total Score, Median: 0.0
[3]; 20 mg, Week 2
  Change from Baseline in CDSS Total Score, Mean (SD): −1.19 (3.30)
  Change from Baseline in CDSS Total Score, Median: −1.0
[3]; 20 mg, Week 3
  Change from Baseline in CDSS Total Score, Mean (SD): −1.41 (3.72)
  Change from Baseline in CDSS Total Score, Median: −1.0
[3]; 20 mg, Week 4
  Change from Baseline in CDSS Total Score, Mean (SD): −1.35 (3.66)
  Change from Baseline in CDSS Total Score, Median: −1.0
[3]; 20 mg, Week 6, Endpoint
  Change from Baseline in CDSS Total Score, Mean (SD): −1.30 (3.85)
  Change from Baseline in CDSS Total Score, Median: 0.0
[3]; 30 mg versus placebo, Week 6, Endpoint
  CDSS Total Score, Trt Effect: −0.34
[3]; 30 mg, Week 1
  Change from Baseline in CDSS Total Score, Mean (SD): −0.77 (2.63)
  Change from Baseline in CDSS Total Score, Median: 0.0
